ChEMBL document CHEMBL1201862, “PubChem BioAssay data set” (2004)
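Growth conditions: 96-well plates. Treatment: test compound, 48 hours, 5 concentrations. Analysis: linear interpolation between bracketing concentrations; unreached endpoints set to highest concentration. At the GI50, growth is halved.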 Calls of active or inactive are those of the source. Rule as the data show it: active = GI50 up to about 1.1 µM and inactive = higher.

Experiments:
Experiment in all cases: NCI tumour cell line growth inhibition, 48 h
MDA-MB-435 = tested on: MDA-MB-435
EKVX = tested on: EKVX
HT-29 = tested on: HT-29
SF-268 = tested on: SF-268
Hs-578T = tested on: Hs-578T
NCI-H226 = tested on: NCI-H226
MOLT-4 = tested on: MOLT-4
ACHN = tested on: ACHN
SK-MEL-2 = tested on: SK-MEL-2
HOP-92 = tested on: HOP-92
SNB-19 = tested on: SNB-19
M14 = tested on: M14
T47D = tested on: T47D
SR = tested on: SR
TK-10 = tested on: TK-10
COLO 205 = tested on: COLO 205
K562 = tested on: K562
OVCAR-5 = tested on: OVCAR-5
NCI-H460 = tested on: NCI-H460
MDA-MB-231 = tested on: MDA-MB-231
A498 = tested on: A498
A549 = tested on: A549
DU-145 = tested on: DU-145
SNB-75 = tested on: SNB-75
SF-539 = tested on: SF-539
PC-3 = tested on: PC-3
HCT-15 = tested on: HCT-15
SK-MEL-28 = tested on: SK-MEL-28
MDA-N = tested on: MDA-N
KM12 = tested on: KM12
SF-295 = tested on: SF-295
SW-620 = tested on: SW-620
SK-MEL-5 = tested on: SK-MEL-5
U-251 = tested on: U-251
UACC-257 = tested on: UACC-257
786-0 = tested on: 786-0
OVCAR-4 = tested on: OVCAR-4
HCT-116 = tested on: HCT-116
LOX IMVI = tested on: LOX IMVI
NCI-H522 = tested on: NCI-H522
NCI/ADR-RES = tested on: NCI/ADR-RES
BT-549 = tested on: BT-549
RPMI-8226 = tested on: RPMI-8226
SN12C = tested on: SN12C
RXF 393 = tested on: RXF 393
OVCAR-3 = tested on: OVCAR-3
UACC-62 = tested on: UACC-62
NCI-H23 = tested on: NCI-H23
OVCAR-8 = tested on: OVCAR-8
IGROV-1 = tested on: IGROV-1
Malme-3M = tested on: Malme-3M
CAKI-1 = tested on: CAKI-1
UO-31 = tested on: UO-31
MCF7 = tested on: MCF7
HOP-62 = tested on: HOP-62
SK-OV-3 = tested on: SK-OV-3

## O=C(O)C(Cc1ccccc1-c1ccccc1)C(=O)O
MDA-MB-435
  GI50: > 100 µM (inactive)
EKVX
  GI50: > 100 µM (inactive)
HT-29
  GI50: > 100 µM (inactive)
SF-268
  GI50: > 100 µM (inactive)
Hs-578T
  GI50: > 100 µM (inactive)
NCI-H226
  GI50: > 100 µM (inactive)
MOLT-4
  GI50: > 100 µM (inactive)
ACHN
  GI50: > 100 µM (inactive)
SK-MEL-2
  GI50: > 100 µM (inactive)
HOP-92
  GI50: > 100 µM (inactive)
SNB-19
  GI50: > 100 µM (inactive)
M14
  GI50: > 100 µM (inactive)
T47D
  GI50: > 100 µM (inactive)
SR
  GI50: > 100 µM (inactive)
TK-10
  GI50: > 100 µM (inactive)
COLO 205
  GI50: > 100 µM (inactive)
K562
  GI50: > 100 µM (inactive)
OVCAR-5
  GI50: > 100 µM (inactive)
NCI-H460
  GI50: > 100 µM (inactive)
MDA-MB-231
  GI50: > 100 µM (inactive)
A498
  GI50: > 100 µM (inactive)
A549
  GI50: > 100 µM (inactive)
DU-145
  GI50: > 100 µM (inactive)
SNB-75
  GI50: > 100 µM (inactive)
SF-539
  GI50: > 100 µM (inactive)
PC-3
  GI50: > 100 µM (inactive)
HCT-15
  GI50: > 100 µM
SK-MEL-28
  GI50: > 100 µM (inactive)
MDA-N
  GI50: > 100 µM (inactive)
KM12
  GI50: > 100 µM (inactive)
SF-295
  GI50: 86.7 µM (inactive)
SW-620
  GI50: > 100 µM (inactive)
SK-MEL-5
  GI50: > 100 µM (inactive)
U-251
  GI50: > 100 µM (inactive)
UACC-257
  GI50: > 100 µM (inactive)
786-0
  GI50: > 100 µM (inactive)
OVCAR-4
  GI50: > 100 µM (inactive)
HCT-116
  GI50: > 100 µM (inactive)
LOX IMVI
  GI50: > 100 µM (inactive)
NCI-H522
  GI50: > 100 µM (inactive)
NCI/ADR-RES
  GI50: > 100 µM (inactive)
BT-549
  GI50: > 100 µM (inactive)
RPMI-8226
  GI50: > 100 µM (inactive)
SN12C
  GI50: > 100 µM (inactive)
RXF 393
  GI50: > 100 µM (inactive)
OVCAR-3
  GI50: 97.1 µM (inactive)
UACC-62
  GI50: > 100 µM (inactive)
NCI-H23
  GI50: > 100 µM (inactive)
OVCAR-8
  GI50: > 100 µM (inactive)
IGROV-1
  GI50: > 100 µM (inactive)
Malme-3M
  GI50: > 100 µM (inactive)
CAKI-1
  GI50: > 100 µM (inactive)
UO-31
  GI50: > 100 µM (inactive)
MCF7
  GI50: > 100 µM (inactive)

## CN(C)Cc1ccc(O)c(CN(C)C)n1
MDA-MB-435
  GI50: > 100 µM (inactive)
EKVX
  GI50: > 100 µM (inactive)
HT-29
  GI50: > 100 µM (inactive)
SF-268
  GI50: > 100 µM (inactive)
Hs-578T
  GI50: > 100 µM (inactive)
NCI-H226
  GI50: > 100 µM (inactive)
MOLT-4
  GI50: > 100 µM (inactive)
ACHN
  GI50: > 100 µM (inactive)
SK-MEL-2
  GI50: > 100 µM (inactive)
HOP-92
  GI50: > 100 µM (inactive)
SNB-19
  GI50: > 100 µM (inactive)
M14
  GI50: > 100 µM (inactive)
T47D
  GI50: > 100 µM (inactive)
SR
  GI50: > 100 µM (inactive)
TK-10
  GI50: > 100 µM (inactive)
COLO 205
  GI50: > 100 µM (inactive)
K562
  GI50: > 100 µM (inactive)
OVCAR-5
  GI50: > 100 µM (inactive)
NCI-H460
  GI50: > 100 µM (inactive)
MDA-MB-231
  GI50: > 100 µM (inactive)
A498
  GI50: > 100 µM (inactive)
A549
  GI50: > 100 µM (inactive)
DU-145
  GI50: > 100 µM (inactive)
SNB-75
  GI50: > 100 µM (inactive)
SF-539
  GI50: > 100 µM (inactive)
PC-3
  GI50: > 100 µM (inactive)
HCT-15
  GI50: > 100 µM
SK-MEL-28
  GI50: > 100 µM (inactive)
MDA-N
  GI50: > 100 µM (inactive)
KM12
  GI50: > 100 µM (inactive)
SF-295
  GI50: > 100 µM (inactive)
HOP-62
  GI50: > 100 µM (inactive)
SW-620
  GI50: > 100 µM (inactive)
SK-MEL-5
  GI50: > 100 µM (inactive)
U-251
  GI50: > 100 µM (inactive)
UACC-257
  GI50: > 100 µM (inactive)
786-0
  GI50: > 100 µM (inactive)
SK-OV-3
  GI50: > 100 µM (inactive)
OVCAR-4
  GI50: > 100 µM (inactive)
HCT-116
  GI50: > 100 µM (inactive)
LOX IMVI
  GI50: > 100 µM (inactive)
NCI-H522
  GI50: > 100 µM (inactive)
NCI/ADR-RES
  GI50: > 100 µM (inactive)
BT-549
  GI50: > 100 µM (inactive)
RPMI-8226
  GI50: > 100 µM (inactive)
SN12C
  GI50: > 100 µM (inactive)
RXF 393
  GI50: > 100 µM (inactive)
OVCAR-3
  GI50: > 100 µM (inactive)
UACC-62
  GI50: > 100 µM (inactive)
NCI-H23
  GI50: > 100 µM (inactive)
OVCAR-8
  GI50: > 100 µM (inactive)
IGROV-1
  GI50: > 100 µM (inactive)
Malme-3M
  GI50: > 100 µM (inactive)
CAKI-1
  GI50: > 100 µM (inactive)
UO-31
  GI50: > 100 µM (inactive)
MCF7
  GI50: > 100 µM (inactive)
